For 23 molecules, IC50, inhibition and MIC results are on record in patent publication US20150368209A1, “4-Pyrimidinylamino-benzenesulfonamide derivatives and their use for the inhibition of polo-like kinase 1 (PLK1) for the treatment of cancer and their use for the treatment of bacterial infections” (VICHEM CHEMIE KUTATÓ KFT., priority 2013, published 2015).

≈ marks a conversion by molar mass, not a printed value.

One assay concerns the target T1, human PLK1 kinase domain (Homo sapiens, UniProt P53350).
T1 construct: Each reaction consisted of 30 nM enzyme PLK1 kinase domain
In words: In vitro PLK1 assay (IMAP fluorescence polarization kinase assay). It is filed as biochemical. Conditions: for IC50: 30 nM PLK1 kinase domain, 16 μM ATP (=Kmapp), 90 min at room temperature; for inhibition at 10 µM: at 10 uM compound. The procedure: The activity of the compounds described in the present invention was determined using a commercially available IMAP Screening Express Assay Kit (Molecular devices).
This method measures the change in the fluorescent polarization of a fluorescently-labeled peptide due to the effect of human PLK1 kinase domain on it. PLK1 kinase assays were performed in low protein binding 384-well plates (Corning 3676). Test compounds were diluted in 100% DMSO to 5 mM stock concentration, the further dilutions were made in H2O or 100% DMSO to desirable concentrations.
Each reaction consisted of 30 nM enzyme PLK1 kinase domain, 400 nM 5TAMRA-RGSFNDTLDFD-NH2 (Genecust Europe), 16 μM ATP (=Kmapp, Sigma-Aldrich) and kinase buffer: 20 mM HEPES pH 7.5 (Sigma-Aldrich), 1 mM DTT (Sigma-Aldrich), 10 mM MgCl2 (Sigma-Aldrich), 0.01% Triton X-100 (Sigma-Aldrich).
For each reaction, 4 or 6 μl containing 5TAMRA-RGSFNDTLDFD-NH2, ATP and kinase buffer were combined with 2 μl diluted compound in H2O or 0.04 μl compound in 100% DMSO. The kinase reaction was started by the addition of 2 μl diluted enzyme. The reaction was allowed to run for 90 minutes at room temperature. The reaction was stopped by adding 15 μl IMAP beads (1:1200 beads in progressive (40% buffer A, 60% buffer B) 1× buffer). After an additional 60 minutes, fluorescent polarization (Ex: 550-10 nm, Em: 590-10 nm, Dich: 561 nm) was measured using Analyst GT multimode reader (Molecular Devices).
A general note: Fluorescence polarisation rises when a labelled molecule tumbles more slowly, as on binding a larger partner.

Another assay has as its system M. tuberculosis H37Rv. Kind of assay: Resazurin reduction microtiter assay (REMA), growth inhibition and MIC determination. It is filed as cell-based. Conditions: Mycobacterium tuberculosis, 168 h, 7 days at 37° C.; for inhibition at 20 µM: at 20 uM compound, read-out: H37Rv inh % at 20 uM; for MIC: two-fold serial dilution from 100 to 0.16 μM, read-out: H37Rv MIC90. On the technique in general: Resazurin is reduced to fluorescent resorufin, in cell work by metabolically active cells.

T1 sequence (P53350 53-305 limits assumed): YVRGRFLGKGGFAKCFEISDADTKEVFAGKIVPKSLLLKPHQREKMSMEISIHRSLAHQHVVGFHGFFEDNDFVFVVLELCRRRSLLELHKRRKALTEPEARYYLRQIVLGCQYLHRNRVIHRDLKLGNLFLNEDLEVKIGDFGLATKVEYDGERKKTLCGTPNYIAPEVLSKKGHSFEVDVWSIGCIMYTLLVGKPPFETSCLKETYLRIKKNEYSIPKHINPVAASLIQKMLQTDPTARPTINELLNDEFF

The IC50 is the concentration needed to halve the response being measured. The low end stands for greater potency, the high end for weaker potency. In the case of `Cc1noc(NS(=O)(=O)c2ccc(Nc3cc(-c4ccccc4C(F)(F)F)ncn3)cc2)c1C` [Example 1, N-(3,4-Dimethyl-isoxazol-5-yl)-4-[6-(2-trifluoromethyl-phenyl)-pyrimidin-4-ylamino]-benzenesulfonamide], on human PLK1 kinase domain, inhibition was half-maximal at 1450 nM (IC50) and the inhibition at 10 µM worked out at 96.1%. In the assay on M. tuberculosis H37Rv, the inhibition at 20 µM was 101% and the MIC worked out at 2.77 µM (≈ 1.35 µg/mL).
Consider `Cc1noc(NS(=O)(=O)c2ccc(Nc3cc(-c4ccccc4OC(F)(F)F)ncn3)cc2)c1C` [Example 2, N-(3,4-Dimethyl-isoxazol-5-yl)-4-[6-(2-trifluoromethoxy-phenyl)-pyrimidin-4-ylamino]-benzenesulfonamide], for which, at human PLK1 kinase domain, the IC50 worked out at 698 nM and the inhibition at 10 µM worked out at 69%. Also, in the assay with M. tuberculosis H37Rv, the inhibition at 20 µM was 102% and the MIC turned out to be 9.71 µM (≈ 4.91 µg/mL).
For `Cc1noc(NS(=O)(=O)c2ccc(Nc3cc(-c4cccc5c4OCO5)ncn3)cc2)c1C` [Example 3, 4-(6-Benzo[1,3]dioxol-4-yl-pyrimidin-4-ylamino)-N-(3,4-dimethyl-isoxazol-5-yl)-benzenesulfonamide], the inhibition at 10 µM on human PLK1 kinase domain was 48.5%. In the assay with M. tuberculosis H37Rv, the inhibition at 20 µM is -7.2%.
On to `Cc1noc(NS(=O)(=O)c2ccc(Nc3cc(-c4ccccc4Oc4ccccc4)ncn3)cc2)c1C` [Example 4, N-(3,4-Dimethyl-isoxazol-5-yl)-4-[6-(2-phenoxy-phenyl)-pyrimidin-4-ylamino]-benzenesulfonamide], for which the inhibition at 10 µM at human PLK1 kinase domain was found to be 52.7%. Moreover, the inhibition at 20 µM in the assay with M. tuberculosis H37Rv came out at 39%.
Turning to `COc1ccc(C(C)C)cc1-c1cc(Nc2ccc(S(=O)(=O)Nc3onc(C)c3C)cc2)ncn1` [Example 5, N-(3,4-Dimethyl-isoxazol-5-yl)-4-[6-(5-isopropyl-2-methoxy-phenyl)-pyrimidin-4-ylamino]-benzenesulfonamide], the inhibition at 10 µM on human PLK1 kinase domain amounted to 43.2%. In the assay on M. tuberculosis H37Rv, the inhibition at 20 µM amounted to 99.2% and the MIC is 16 µM (≈ 7.9 µg/mL).
Take `COc1ccc(OC)c(-c2cc(Nc3ccc(S(=O)(=O)Nc4onc(C)c4C)cc3)ncn2)c1` [Example 7, 4-[6-(2,5-Dimethoxy-phenyl)-pyrimidin-4-ylamino]-N-(3,4-dimethyl-isoxazol-5-yl)-benzenesulfonamide]: at human PLK1 kinase domain, the 50% inhibitory concentration (IC50) worked out at 189 nM and the inhibition at 10 µM came to 59.6%. For the same molecule, in the assay on M. tuberculosis H37Rv, the inhibition at 20 µM was determined as 58.2%.
Taken in the same sequence, the figures for `CCOc1ccccc1-c1cc(Nc2ccc(S(=O)(=O)Nc3onc(C)c3C)cc2)ncn1` [Example 8, N-(3,4-Dimethyl-isoxazol-5-yl)-4-[6-(2-ethoxy-phenyl)-pyrimidin-4-ylamino]-benzenesulfonamide] were 1250 nM, 82.4% and -48.4%.
The like results for `CCCOc1ccccc1-c1cc(Nc2ccc(S(=O)(=O)Nc3onc(C)c3C)cc2)ncn1` [Example 10, N-(3,4-Dimethyl-isoxazol-5-yl)-4-[6-(2-propoxy-phenyl)-pyrimidin-4-ylamino]-benzenesulfonamide] were, in that order, 925 nM, 104% and -21.2%.
The like results for `Cc1noc(NS(=O)(=O)c2ccc(Nc3cc(-c4ccc5c(c4)OCO5)ncn3)cc2)c1C` [Example 11, 4-(6-Benzo[1,3]dioxol-5-yl-pyrimidin-4-ylamino)-N-(3,4-dimethyl-isoxazol-5-yl)-benzenesulfonamide] were, in that order, 888 nM, 74.4% and -21.5%.
`Cc1noc(NS(=O)(=O)c2ccc(Nc3cc(-c4ccccc4OC(C)C)ncn3)cc2)c1C` [Example 13, N-(3,4-Dimethyl-isoxazol-5-yl)-4-[6-(2-isopropoxy-phenyl)-pyrimidin-4-ylamino]-benzenesulfonamide]: at human PLK1 kinase domain, half-maximal inhibition (IC50) required 1820 nM and the inhibition at 10 µM was found to be 88.6%. In addition, the inhibition at 20 µM in the assay with M. tuberculosis H37Rv was -23%.
On to `COc1ccc(F)c(F)c1-c1cc(Nc2ccc(S(=O)(=O)Nc3onc(C)c3C)cc2)ncn1` [Example 14, 4-[6-(2,3-Difluoro-6-methoxy-phenyl)-pyrimidin-4-ylamino]-N-(3,4-dimethyl-isoxazol-5-yl)-benzenesulfonamide], for which the inhibition at 10 µM against human PLK1 kinase domain worked out at 55.4%.
For `Cc1noc(NS(=O)(=O)c2ccc(Nc3cc(-c4ccc(F)cc4OC(C)C)ncn3)cc2)c1C` [Example 17, N-(3,4-Dimethyl-isoxazol-5-yl)-4-[6-(4-fluoro-2-isopropoxy-phenyl)-pyrimidin-4-ylamino]-benzenesulfonamide], at human PLK1 kinase domain, the IC50 is 179 nM and the inhibition at 10 µM worked out at 68.8%. For the same molecule, the inhibition at 20 µM in the assay on M. tuberculosis H37Rv was -1.4%.
On to `COc1cc(F)ccc1-c1cc(Nc2ccc(S(=O)(=O)Nc3onc(C)c3C)cc2)ncn1` [Example 18, N-(3,4-Dimethyl-isoxazol-5-yl)-4-[6-(4-fluoro-2-methoxy-phenyl)-pyrimidin-4-ylamino]-benzenesulfonamide], for which, on human PLK1 kinase domain, the midpoint of inhibition, the IC50, lay at 40 nM and the inhibition at 10 µM amounted to 63.3%. For the same molecule, in the assay with M. tuberculosis H37Rv, the inhibition at 20 µM is -8.6%.
Consider `Cc1noc(NS(=O)(=O)c2ccc(Nc3cc(-c4ccc(F)cc4Cl)ncn3)cc2)c1C` [Example 19, 4-[6-(2-Chloro-4-fluoro-phenyl)-pyrimidin-4-ylamino]-N-(3,4-dimethyl-isoxazol-5-yl)-benzenesulfonamide], for which, on human PLK1 kinase domain, it took 47 nM to reach half-maximal inhibition (IC50) and the inhibition at 10 µM came out at 60.8%. Also, in the assay on M. tuberculosis H37Rv, the inhibition at 20 µM was found to be 100% and the MIC was found to be 19.4 µM (≈ 9.22 µg/mL).
The like results for `CCc1ccccc1-c1cc(Nc2ccc(S(=O)(=O)Nc3onc(C)c3C)cc2)ncn1` [Example 20, N-(3,4-Dimethyl-isoxazol-5-yl)-4-[6-(2-ethyl-phenyl)-pyrimidin-4-ylamino]-benzenesulfonamide] were, in that order, 960 nM, 73%, 103% and 4.84 µM (≈ 2.18 µg/mL).
Regarding `Cc1noc(NS(=O)(=O)c2ccc(Nc3cc(-c4ccc(F)cc4F)ncn3)cc2)c1C` [Example 21, 4-[6-(2,4-Difluoro-phenyl)-pyrimidin-4-ylamino]-N-(3,4-dimethyl-isoxazol-5-yl)-benzenesulfonamide], at human PLK1 kinase domain, the concentration for half-maximal inhibition (IC50) worked out at 368 nM and the inhibition at 10 µM is 65.8%. In addition, the inhibition at 20 µM in the assay with M. tuberculosis H37Rv is -3.7%.
Consider `Cc1noc(NS(=O)(=O)c2ccc(Nc3cc(-c4ccccc4COc4ccc(OC(F)(F)F)cc4)ncn3)cc2)c1C` [Example 30, N-(3,4-Dimethyl-isoxazol-5-yl)-4-{6-[2-(4-trifluoromethoxy-phenoxymethyl)-phenyl]-pyrimidin-4-ylamino}-benzenesulfonamide], for which the inhibition at 10 µM on human PLK1 kinase domain was 0%.
For the molecule `COc1ccccc1-c1cc(Nc2ccc(S(=O)(=O)Nc3onc(C)c3C)cc2)ncn1` [Example 31, N-(3,4-Dimethyl-isoxazol-5-yl)-4-[6-(2-methoxy-phenyl)-pyrimidin-4-ylamino]-benzenesulfonamide], at human PLK1 kinase domain, the IC50 was 2470 nM and the inhibition at 10 µM amounted to 79.8%.
The like results for `Cc1noc(NS(=O)(=O)c2ccc(Nc3cc(-c4cccc(N)c4)ncn3)cc2)c1C` [Example 44, 4-[6-(3-Amino-phenyl)-pyrimidin-4-ylamino]-N-(3,4-dimethyl-isoxazol-5-yl)-benzenesulfonamide] were, in that order, 11400 nM and 68%.
Taken in the same sequence, the figures for `Cc1noc(NS(=O)(=O)c2ccc(Nc3cc(-c4ccc(N)cc4)ncn3)cc2)c1C` [Example 45, 4-[6-(4-Amino-phenyl)-pyrimidin-4-ylamino]-N-(3,4-dimethyl-isoxazol-5-yl)-benzenesulfonamide] were 7340 nM and 88%.
Take `Cc1noc(NS(=O)(=O)c2ccc(Nc3cc(-c4ccc(C(N)=O)cc4)ncn3)cc2)c1C` [Example 46, 4-{6-[4-(3,4-Dimethyl-isoxazol-5-ylsulfamoyl)-phenylamino]-pyrimidin-4-yl}-benzamide]: the inhibition at 10 µM against human PLK1 kinase domain came to 24%.
The same measure, in the same setting: the figure for `Cc1ccc(COCc2cc(C)cc(-c3cc(Nc4ccc(S(=O)(=O)Nc5onc(C)c5C)cc4)ncn3)c2)cc1` [Example 47, N-(3,4-Dimethyl-isoxazol-5-yl)-4-{6-[3-methyl-5-(4-methyl-benzyloxymethyl)-phenyl]-pyrimidin-4-ylamino}-benzenesulfonamide] is -4%.
As to `Cc1noc(NS(=O)(=O)c2ccc(Nc3cc(-c4ccc(N(C)C)cc4)ncn3)cc2)c1C` [Example 48, 4-[6-(4-Dimethylamino-phenyl)-pyrimidin-4-ylamino]-N-(3,4-dimethyl-isoxazol-5-yl)-benzenesulfonamide], on human PLK1 kinase domain, the IC50 came to 14200 nM and the inhibition at 10 µM turned out to be 87%.
